We go through 22 compounds from US9133186B2, “Hetero ring-fused imidazole derivative having AMPK activating effect” (Shionogi & Co., Ltd., priority 2010, dated 2015).

Test [1] has as its target T1, Human AMPK α2β2γ1 (Homo sapiens, UniProt O43741+P54646).
T1 construct: The full length cDNAs of human AMPK P2 (NM_005399.3) and human AMPK α2 (NM_006252.3); 6×His (N); made in house; host or cells: Escherichia coli BL21 CodonPlus (DE3)-RIL
Nature of the test: AMPK activator evaluation, Test Example 2 (CaMKK2-phosphorylated enzyme, mobility shift). Particulars: human AMPK α2β2γ1 phosphorylated with CaMKK2, control = 100%; for Emax: read-out: Emax (maximum rate of increase in activity within the measurement range). It is filed as biochemical. The procedure:
The full length cDNAs of human AMPK P2 (NM_005399.3) and human AMPK α2 (NM_006252.3) were inserted into the MCS1 and MCS2 of the pETDuet-1 vector to prepare a human AMPK β2 and human AMPK α2 (6×His tag at the 5′ terminus) expressing plasmid. The plasmid was contransfected with an expression plasmid, in which the full length cDNA of human AMPK γ1 (NM_002733.3) had been inserted into pET28b(+), into BL21 CodonPlus (DE3)-RIL to obtain an expression strain. The expression strain was cultured in TB medium, followed by induction with 0.5 mM IPTG, and cultured at 25° C. for 3 hours and then harvested. After ultrasonication, supernatant was collected and applied to Histrap column (GE) and RESOUECE Q 6 ml column (GE) to prepare 12.5 mg of purified sample containing three types of subunit from 1.8 L of broth.
An expression vector, in which the full length cDNA of human CAMKK β (NM_172226.1) had been inserted into pGEX-6P-3, was transfected into BL21 Star (DE3). The expression strain was cultured in TB medium, followed by induction with 0.5 mM IPTG, and cultured at 25° C. for 3 hours and then harvested. After ultrasonication, supernatant was collected and applied to GSTrap FF column (GE) to prepare 14 mg of GST-fused CAMKK β from 720 ml of broth.
Thus, phosphorylation treatment was carried out as pretreatment.
Human AMPK α2β2γ1 in an amount to give a conversion rate of approximately 10% by reaction for 2 hours, and CaMKK2 in an amount capable of sufficiently imparting activity to AMPK for one hour were mixed in a buffer solution consisting of a 50 mM HEPES-NaOH buffer solution (pH 7.0), 100 mM NaCl, 5 mM magnesium chloride, 0.1% bovine serum albumin, 0.2 mM sodium orthovanadate(V), 1 mM ethylene glycol-bis(2-aminoethyl ether)-N,N,N′,N′-tetraacetic acid (EGTA), 5 mM disodium β-glycerophosphate, 1 mM dithiothreitol and 0.2 mM ATP, and the obtained liquid was left to stand at 25° C. for 1 to 1.5 hours to sufficiently phosphorylate AMPK.
After that, to the enzyme liquid, which had been subjected to phosphorylation treatment, a compound dissolved in DMSO was added so as to have a 1% DMSO concentration. The obtained liquid was left to stand for 10 minutes.
To the liquid, a substrate solution consisting of a 50 mM HEPES-NaOH buffer solution (pH 7.0), 100 mM NaCl, 10 mM magnesium chloride, 0.1% bovine serum albumin, 0.2 mM sodium orthovanadate(V), 1 mM ethylene glycol-bis(2-aminoethyl ether)-N,N,N′,N′-tetraacetic acid (EGTA), 5 mM disodium glycerophosphate, 2 mM dithiothreitol, 0.4 mM ATP and 3 μM FL-Peptide 7 (manufactured by Caliper Life Sciences, Inc.) was added in equal amount (10 μl in total). The obtained liquid was allowed to react at 25° C. for 2 hours, and 10 μl of 20 mM EDTA was then added thereto to stop the reaction.
(§1) To detect phosphorylated fluorescent substrates, the reaction liquid was applied to a measuring device, LabChip EZ Reader II manufactured by Caliper Life Science, Inc., for detecting fluorescence by using differences in mobility due to differences in charge. The setting conditions for the device were pressure, −1.5 PSI; upstream voltage, −2250 V; downstream voltage, −400 V; post sample buffer sip time, 40 seconds; final delay, 120 seconds; and peak order, Product First.
A conversion rate was calculated from the peak heights of the resulting substrate and product. The conversion rate when not containing a compound was used as a control, and a concentration dependent curve was made by plotting the rate of increase in activity to the control at each concentration of a compound.

The target in test [2] is T2, human AMPK α1β1γ1 enzyme (Homo sapiens, UniProt Q13131+Q9Y478).
T2 construct: purchased Carna Biosciences, Inc
Nature of the test: AMPK activator evaluation, Test Example 1 (mobility shift, FL-Peptide 7). It is filed as biochemical. Particulars: human AMPK α1β1γ1, control without compound = 100%; for Emax: read-out: Emax (maximum rate of increase in activity within the measurement range). The procedure: To a buffer solution consisting of a 50 mM HEPES-NaOH buffer solution (pH 7.0), 100 mM NaCl, 10 mM magnesium chloride, 0.1% bovine serum albumin, 0.2 mM sodium orthovanadate(V), 1 mM ethylene glycol-bis(2-aminoethyl ether)-N,N,N′,N′-tetraacetic acid (EGTA), 5 mM disodium (3-glycerophosphate and 2 mM dithiothreitol, a human AMPK α1β1γ1 enzyme (manufactured by Carna Biosciences, Inc.) was added in an amount to give a conversion rate of approximately 10% by reaction for 2 hours, and a compound dissolved in DMSO was added thereto so as to have a 1% DMSO concentration. The obtained liquid was left to stand for 10 minutes.
To the liquid, a substrate solution consisting of a 50 mM HEPES-NaOH buffer solution (pH 7.0), 100 mM NaCl, 10 mM magnesium chloride, 0.1% bovine serum albumin, 0.2 mM sodium orthovanadate(V), 1 mM ethylene glycol-bis(2-aminoethyl ether)-N,N,N′,N′ tetraacetic acid (EGTA), 5 mM disodium β-glycerophosphate, 2 mM dithiothreitol, 0.4 mM ATP and 3 μM FL-Peptide 7 (manufactured by Caliper Life Sciences, Inc.) was added in equal amount (10 μl in total). The obtained liquid was allowed to react at 25° C. for 2 hours, and 10 μl of 20 mM EDTA was then added thereto to stop the reaction.
as §1

T1 sequence (P54646 whole entry): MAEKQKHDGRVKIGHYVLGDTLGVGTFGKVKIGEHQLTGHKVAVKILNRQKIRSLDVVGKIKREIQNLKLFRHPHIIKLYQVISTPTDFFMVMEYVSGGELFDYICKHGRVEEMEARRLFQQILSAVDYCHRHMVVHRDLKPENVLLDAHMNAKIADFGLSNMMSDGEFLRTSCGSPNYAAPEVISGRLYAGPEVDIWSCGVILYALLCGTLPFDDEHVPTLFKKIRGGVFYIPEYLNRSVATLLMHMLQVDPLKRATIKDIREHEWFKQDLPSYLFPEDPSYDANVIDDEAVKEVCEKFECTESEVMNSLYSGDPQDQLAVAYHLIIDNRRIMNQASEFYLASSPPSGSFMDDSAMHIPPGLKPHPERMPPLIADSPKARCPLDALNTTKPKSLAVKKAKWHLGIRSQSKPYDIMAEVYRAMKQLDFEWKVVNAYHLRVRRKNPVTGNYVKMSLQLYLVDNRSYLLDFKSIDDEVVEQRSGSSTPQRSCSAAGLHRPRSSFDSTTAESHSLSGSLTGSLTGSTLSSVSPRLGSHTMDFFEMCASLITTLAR
T1 sequence (O43741 whole entry): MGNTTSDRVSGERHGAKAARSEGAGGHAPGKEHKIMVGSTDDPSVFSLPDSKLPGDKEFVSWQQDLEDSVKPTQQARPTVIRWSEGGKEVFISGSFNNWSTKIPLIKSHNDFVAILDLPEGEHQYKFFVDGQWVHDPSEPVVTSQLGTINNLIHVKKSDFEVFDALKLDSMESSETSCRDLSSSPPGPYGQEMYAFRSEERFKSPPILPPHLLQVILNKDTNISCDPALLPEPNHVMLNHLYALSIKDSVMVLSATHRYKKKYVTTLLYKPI
T1 sequence (P54619 whole entry partner): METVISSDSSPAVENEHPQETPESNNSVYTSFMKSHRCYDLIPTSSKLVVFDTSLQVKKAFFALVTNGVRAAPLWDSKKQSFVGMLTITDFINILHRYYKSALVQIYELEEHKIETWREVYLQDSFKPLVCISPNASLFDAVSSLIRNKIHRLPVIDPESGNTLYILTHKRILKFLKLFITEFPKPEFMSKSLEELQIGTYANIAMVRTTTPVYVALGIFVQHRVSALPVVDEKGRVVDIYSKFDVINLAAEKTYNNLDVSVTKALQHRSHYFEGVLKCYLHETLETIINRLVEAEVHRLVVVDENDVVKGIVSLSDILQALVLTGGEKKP
T2 sequence (Q13131 10-559 limits assumed): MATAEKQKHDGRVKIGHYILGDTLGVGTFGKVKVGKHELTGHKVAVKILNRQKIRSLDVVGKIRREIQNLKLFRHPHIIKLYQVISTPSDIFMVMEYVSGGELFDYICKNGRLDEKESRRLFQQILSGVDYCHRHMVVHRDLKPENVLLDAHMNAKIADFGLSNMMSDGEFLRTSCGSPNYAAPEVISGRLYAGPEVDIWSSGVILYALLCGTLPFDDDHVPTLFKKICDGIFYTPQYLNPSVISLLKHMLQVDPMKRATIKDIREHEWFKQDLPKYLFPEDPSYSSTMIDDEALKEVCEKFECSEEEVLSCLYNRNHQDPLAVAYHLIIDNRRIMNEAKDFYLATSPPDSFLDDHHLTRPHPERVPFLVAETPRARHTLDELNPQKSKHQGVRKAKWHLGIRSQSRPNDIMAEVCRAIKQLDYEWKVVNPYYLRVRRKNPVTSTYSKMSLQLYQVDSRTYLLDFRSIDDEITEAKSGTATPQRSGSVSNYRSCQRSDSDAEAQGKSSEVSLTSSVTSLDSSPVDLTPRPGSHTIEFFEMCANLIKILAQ
T2 sequence (Q9Y478 whole entry): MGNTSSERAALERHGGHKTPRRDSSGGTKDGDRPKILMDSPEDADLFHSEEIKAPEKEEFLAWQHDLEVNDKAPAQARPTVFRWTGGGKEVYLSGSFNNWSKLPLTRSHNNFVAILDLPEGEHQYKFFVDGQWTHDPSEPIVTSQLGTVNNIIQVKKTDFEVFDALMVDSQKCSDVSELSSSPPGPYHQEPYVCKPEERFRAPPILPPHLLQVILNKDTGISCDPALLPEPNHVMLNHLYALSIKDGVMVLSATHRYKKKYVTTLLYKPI
T2 sequence (P54619 whole entry partner): as the sequence (P54619 whole entry partner) above

As usually defined, the Emax is the size of the effect at its maximum, as opposed to the concentration needed. For the compound `O=C(O)C1(c2ccc(Oc3nc4nc(-c5ccc(N6CCCC6)cc5)c(Cl)cc4[nH]3)cc2)CC1` [Compound C-94], in test [1], the “EC150 (compound concentration showing 150% relative to the control)” value is recorded as 59 nM and the Emax stood at 325%. In addition, in test [2], the “EC150 (compound concentration showing 150% relative to the control)” value was found to be 12 nM and the Emax came to 352%.

Regarding `Cc1ccc(C(=O)O)cc1Oc1nc2nc(-c3ccc(N4CCOCC4)cc3)c(Cl)cc2[nH]1` [Compound B-108], the “EC150 (compound concentration showing 150% relative to the control)” value is listed as 410 nM in test [1] and 27 nM in test [2]. Besides, the Emax stood at 341% in test [1] and 340% in test [2].

As to `CC(=O)NC(C)(C)c1ccc(Oc2nc3nc(-c4ccc(N5CCC(O)C5)cc4)c(Cl)cc3[nH]2)cc1` [Compound D-49], the “EC150 (compound concentration showing 150% relative to the control)” value in test [1] was 54 nM; in test [2], 3.5 nM. Moreover, the Emax in test [1] is 420%; in test [2], 263%.

With `Cc1ccc(Oc2nc3nc(-c4ccc5c(ccn5C)c4)c(Cl)cc3[nH]2)cc1C(=O)O` [Compound A-2], in test [1], the “EC150 (compound concentration showing 150% relative to the control)” value is recorded as 74 nM and the Emax was determined as 406%. In addition, in test [2], the “EC150 (compound concentration showing 150% relative to the control)” value is on record as 7 nM and the Emax was found to be 408%.

Regarding `O=C(O)c1ccc(Oc2nc3nc(-c4ccc(N5CCOCC5)cc4)c(Cl)cc3[nH]2)cc1` [Compound B-101], the “EC150 (compound concentration showing 150% relative to the control)” value in test [1] worked out at 1300 nM; in test [2] it was 120 nM. Moreover, the Emax in test [1] amounted to 212%; in test [2], 269%.

With `Cc1ncc(Oc2nc3nc(-c4ccc(N5CCOCC5)cc4)c(Cl)cc3[nH]2)cn1` [Compound C-106], in test [1], the “EC150 (compound concentration showing 150% relative to the control)” value is given as 580 nM and the Emax turned out to be 290%. Besides, in test [2], the “EC150 (compound concentration showing 150% relative to the control)” value was 690 nM and the Emax is 278%.

Turning to `Cc1ccc(Oc2nc3nc(-c4ccc(N5CCOCC5)cc4)c(Cl)cc3[nH]2)cc1C(N)=O` [Compound C-12], in test [1], the “EC150 (compound concentration showing 150% relative to the control)” value worked out at 130 nM and the Emax was 293%. In test [2], the “EC150 (compound concentration showing 150% relative to the control)” value is 140 nM and the Emax was 256%.

For `Cc1ccc(Oc2nc3cc(Cl)c(-c4ccc(-c5ccccc5O)cc4)nc3[nH]2)cc1C(=O)O` [Compound C-4], the “EC150 (compound concentration showing 150% relative to the control)” value stood at 4.3 nM in test [1] and 0.42 nM in test [2]. Moreover, the values for the Emax in test [1] and in test [2] were 292% and 355%, respectively.

As for `Cc1ccc(Oc2nc3nc(-c4ccc(N5CCOCC5)cc4)c(Cl)cc3[nH]2)cn1` [Compound B-119], in test [1], the “EC150 (compound concentration showing 150% relative to the control)” value is recorded as 240 nM and the Emax was 242%. In test [2], the “EC150 (compound concentration showing 150% relative to the control)” value came to 220 nM and the Emax turned out to be 265%.

Take `Cc1ccc(Oc2nc3nc(-c4cccc(O)c4)c(Cl)cc3[nH]2)cc1C(=O)O` [Compound B-40]: in test [2], the “EC150 (compound concentration showing 150% relative to the control)” value turned out to be 110 nM and the Emax was found to be 297%.

Consider `Cc1ccc(Oc2nc3nc(-c4ccc(N5CCOCC5)cc4)c(Cl)cc3[nH]2)cc1C(=O)NC#N` [Compound C-9], for which, in test [2], the “EC150 (compound concentration showing 150% relative to the control)” value was 33 nM and the Emax amounted to 322%.

As to `CC(C)(C(=O)NCCO)c1ccc(Oc2nc3nc(-c4ccc(N5CCOCC5)cc4)c(Cl)cc3[nH]2)cn1` [Compound D-55], in test [2], the “EC150 (compound concentration showing 150% relative to the control)” value is given as 2700 nM and the Emax turned out to be 177%.

Consider `CC(=O)NC(C)(C)c1ccc(Oc2nc3nc(-c4ccc(C5(C(C)O)CC5)cc4)c(Cl)cc3[nH]2)cc1` [Compound D-103], for which, in test [2], the “EC150 (compound concentration showing 150% relative to the control)” value amounted to 110 nM and the Emax was 238%.

In the case of `CNc1ncc(Oc2nc3nc(-c4ccc(N5CCOCC5)cc4)c(Cl)cc3[nH]2)cn1` [Compound D-31], in test [2], the “EC150 (compound concentration showing 150% relative to the control)” value came to 19 nM and the Emax was determined as 314%.

On to `Cc1ccc(Oc2nc3cc(-c4ccc(N5CCOCC5)cc4)c(C)nc3[nH]2)cc1C(=O)O` [Compound B-81], for which, in test [2], the “EC150 (compound concentration showing 150% relative to the control)” value is reported as 25 nM and the Emax came to 283%.

For `CC(C)(C(N)=O)c1ccc(Oc2nc3nc(-c4ccc(C5(COC(N)=O)CC5)cc4)c(Cl)cc3[nH]2)cc1` [Compound D-4], in test [2], the “EC150 (compound concentration showing 150% relative to the control)” value was 70 nM and the Emax was determined as 207%.

As to `O=C(O)c1cc(Oc2nc3nc(-c4ccc(N5CCOCC5)cc4)c(Cl)cc3[nH]2)ccc1Cl` [Compound C-32], in test [2], the “EC150 (compound concentration showing 150% relative to the control)” value is 68 nM and the Emax worked out at 253%.

As for `Cc1ccc(Oc2nc3nc(-c4ccc(OCC(C)(C)O)cc4)c(Cl)cc3[nH]2)cc1C(=O)O` [Compound C-21], in test [2], the “EC150 (compound concentration showing 150% relative to the control)” value turned out to be 36 nM and the Emax is 338%.

For the compound `Cc1ccc(Oc2nc3nc(-c4ccc(N5CCOCC5)cc4)ncc3[nH]2)cc1C(=O)O` [Compound B-7], in test [2], the “EC150 (compound concentration showing 150% relative to the control)” value is listed as 5100 nM and the Emax is 246%.

Turning to `OCCc1ccc(Oc2nc3nc(-c4ccc(N5CCOCC5)cc4)c(Cl)cc3[nH]2)cc1` [Compound B-137], in test [2], the “EC150 (compound concentration showing 150% relative to the control)” value stood at 25 nM and the Emax is 301%.

For `O=C1CCc2ccc(Oc3nc4nc(-c5ccc(N6CCOCC6)cc5)c(Cl)cc4[nH]3)cc2N1` [Compound B-141], in test [2], the “EC150 (compound concentration showing 150% relative to the control)” value was found to be 61 nM and the Emax is 319%.

As for `CC(=O)NC(C)(C)c1ccc(Oc2nc3nc(-c4ccc(NCCO)cc4)c(Cl)cc3[nH]2)cc1` [Compound D-62], in test [2], the “EC150 (compound concentration showing 150% relative to the control)” value was determined as 80 nM and the Emax is 267%.
